We go through 26 molecules from patent publication US9796704B2, “Substituted quinazolines as receptor-type kinase inhibitors” (Symphony Evolution, Inc., priority 2002, dated 2017).

The target in one experiment is EphB4 (Homo sapiens (Human), UniProt P54760). Put plainly: EphB4 kinase inhibition, 33P phosphoryl transfer assay (radiometric). The class given is biochemical.
The next experiment has as its target KDR (Homo sapiens (Human), UniProt P35968). Briefly: KDR kinase inhibition, luciferase-coupled chemiluminescent assay (LCCA). The note with it: read-out: KDR IC50.
In another experiment the target is EGFR (Homo sapiens (Human), UniProt P00533). Briefly: EGFR kinase inhibition, luciferase-coupled chemiluminescent assay (LCCA). To be noted: read-out: EGFR IC50.
Sequence of EGFR (P00533 672-1210): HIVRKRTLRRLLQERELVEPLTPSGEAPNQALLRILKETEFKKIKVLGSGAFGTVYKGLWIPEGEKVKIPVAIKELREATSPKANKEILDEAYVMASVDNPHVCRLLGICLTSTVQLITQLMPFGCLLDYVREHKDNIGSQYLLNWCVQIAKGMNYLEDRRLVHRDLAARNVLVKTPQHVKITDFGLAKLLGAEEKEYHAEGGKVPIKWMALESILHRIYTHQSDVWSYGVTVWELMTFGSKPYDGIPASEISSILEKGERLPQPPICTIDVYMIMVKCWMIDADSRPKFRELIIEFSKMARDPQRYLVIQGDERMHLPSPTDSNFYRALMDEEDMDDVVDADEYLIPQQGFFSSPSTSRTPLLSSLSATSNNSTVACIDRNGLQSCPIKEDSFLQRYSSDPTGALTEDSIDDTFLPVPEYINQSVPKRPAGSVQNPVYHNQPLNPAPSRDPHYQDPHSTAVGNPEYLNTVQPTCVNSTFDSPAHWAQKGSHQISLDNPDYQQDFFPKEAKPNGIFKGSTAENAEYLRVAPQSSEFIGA
A further experiment deals with EphA2 (Homo sapiens (Human), UniProt P29317). Put plainly: EphA2 kinase inhibition, luciferase-coupled chemiluminescent assay (LCCA). The note with it: read-out: EphA2 IC50.
Sequence of EphA2 (P29317 598-890): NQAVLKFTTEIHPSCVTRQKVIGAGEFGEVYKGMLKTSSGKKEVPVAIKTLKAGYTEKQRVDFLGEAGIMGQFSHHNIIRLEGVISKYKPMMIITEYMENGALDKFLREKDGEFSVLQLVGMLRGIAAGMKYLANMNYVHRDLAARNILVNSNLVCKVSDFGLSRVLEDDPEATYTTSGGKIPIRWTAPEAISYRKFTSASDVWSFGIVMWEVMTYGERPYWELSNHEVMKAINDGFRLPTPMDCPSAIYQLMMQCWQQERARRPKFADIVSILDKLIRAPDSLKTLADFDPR

Sequence of EphB4 (P54760 605-890): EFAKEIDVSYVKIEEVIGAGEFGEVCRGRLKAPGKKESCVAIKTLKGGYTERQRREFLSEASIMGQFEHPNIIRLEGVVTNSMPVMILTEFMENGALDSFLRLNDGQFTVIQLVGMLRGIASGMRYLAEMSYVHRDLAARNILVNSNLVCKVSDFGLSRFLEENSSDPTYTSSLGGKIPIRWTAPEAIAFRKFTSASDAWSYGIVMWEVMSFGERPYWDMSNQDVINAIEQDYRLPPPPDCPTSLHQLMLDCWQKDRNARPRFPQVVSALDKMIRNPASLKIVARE
Sequence of KDR (P35968 807-1356): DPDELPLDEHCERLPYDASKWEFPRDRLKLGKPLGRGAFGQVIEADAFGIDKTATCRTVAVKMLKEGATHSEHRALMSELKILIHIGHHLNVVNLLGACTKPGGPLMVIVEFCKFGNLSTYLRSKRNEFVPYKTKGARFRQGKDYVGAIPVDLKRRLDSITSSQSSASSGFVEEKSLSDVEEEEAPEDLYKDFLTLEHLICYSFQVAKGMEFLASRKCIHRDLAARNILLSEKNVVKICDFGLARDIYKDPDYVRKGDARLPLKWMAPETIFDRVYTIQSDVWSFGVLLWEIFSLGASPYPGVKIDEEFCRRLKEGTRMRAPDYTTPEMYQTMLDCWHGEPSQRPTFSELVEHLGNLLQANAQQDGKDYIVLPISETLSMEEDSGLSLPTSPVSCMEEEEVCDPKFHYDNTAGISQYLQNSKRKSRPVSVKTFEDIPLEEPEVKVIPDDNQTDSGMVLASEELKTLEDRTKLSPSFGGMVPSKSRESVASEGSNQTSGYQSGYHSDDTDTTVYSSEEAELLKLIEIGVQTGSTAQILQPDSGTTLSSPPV
Method for EphA2: (§1) Kinase activity and compound inhibition are investigated using one or more of the three assay formats described below. The ATP concentrations are selected near its Michaelis-Menten constant (KM) for each individual kinase. Dose-response experiments are performed at ten different inhibitor concentrations in a 384-well plate format. […] Typically H is close to unity.
(§2) In the LCCA assays, kinase activity is measured by the ATP consumption that is accurately measured by luciferase-coupled chemiluminescence. Greiner 384-well white clear bottom medium binding plates are used for LCCA. Briefly the kinase reaction is initiated by mixing compounds, ATP and kinases in a 20 μL volume. At the end of the kinase reaction, a 20 μL luciferase-luciferin mix is added and the chemiluminescent signal is read on a Wallac Victor^2 reader.
Method for KDR: as §1, §2

One may read the IC50 as the concentration that gives 50% inhibition. On to `COc1cc2c(Nc3ccc(Cl)c(Cl)c3)ncnc2cc1OCc1noc(C)c1-c1ccccc1` [Example 161, N-(3,4-dichlorophenyl)-6-(methyloxy)-7-{[(5-methyl-4-phenylisoxazol-3-yl)methyl]oxy}quinazolin-4-amine], for which the IC50 against EphB4, at KDR and at EGFR was under 50 nM in each case.

Take `COc1cc2c(Nc3ccc(Cl)c(Cl)c3)ncnc2cc1OCc1noc(-c2cccc(C(F)(F)F)c2)n1` [Example 166, N-(3,4-dichlorophenyl)-6-(methyloxy)-7-[({5-[3-(trifluoromethyl)phenyl]-1,2,4-oxadiazol-3-yl}methyl)oxy]quinazolin-4-amine]: the IC50 on KDR and at EGFR was under 50 nM each time.

As to `COc1cc2c(Nc3cc(C(F)(F)F)ccc3Cl)ncnc2cc1O[C@@H]1CO[C@@H]2[C@H]1OC[C@H]2F` [Example 122, 1,4:3,6-dianhydro-5-O-[4-{[2-chloro-5-(trifluoromethyl)phenyl]amino}-6-(methyloxy)quinazolin-7-yl]-2-deoxy-2-fluoro-D-iditol], the IC50 at KDR and on EGFR was under 50 nM in each case.

Consider `COc1cc2c(Nc3ccc(Cl)cc3F)ncnc2cc1O[C@@H]1CO[C@@H]2[C@H]1OC[C@H]2F` [Example 109, 1,4:3,6-dianhydro-5-O-[4-[(4-chloro-2-fluorophenyl)amino]-6-(methyloxy)quinazolin-7-yl]-2-deoxy-2-fluoro-D-iditol], for which the IC50 at KDR and on EGFR was under 50 nM each time.

With `COc1cc2c(Nc3ccc(Br)c(Cl)c3)ncnc2cc1O[C@H]1CO[C@H]2[C@@H]1OC[C@@H]2OC` [Example 73, 1,4:3,6-dianhydro-2-O-[4-[(4-bromo-3-chlorophenyl)amino]-6-(methyloxy)quinazolin-7-yl]-5-O-methyl-L-iditol], at KDR, the IC50 was under 50 nM.

As to `COc1cc2c(Nc3c(F)cc(F)cc3Br)ncnc2cc1O[C@@H]1CO[C@@H]2[C@H]1OC[C@H]2F` [Example 120, 1,4:3,6-dianhydro-5-O-[4-[(2-bromo-4,6-difluorophenyl)amino]-6-(methyloxy)quinazolin-7-yl]-2-deoxy-2-fluoro-D-iditol], the IC50 on KDR and on EGFR was under 50 nM throughout.

Regarding `COc1cc2c(Nc3ccc(F)cc3F)ncnc2cc1O[C@@H]1CO[C@@H]2[C@H]1OC[C@H]2F` [Example 90, 1,4:3,6-dianhydro-2-deoxy-5-O-[4-[(2,4-difluorophenyl)amino]-6-(methyloxy)quinazolin-7-yl]-2-fluoro-D-iditol], the IC50 at KDR and at EGFR was under 50 nM each time.

Take `COc1cc2c(Nc3ccc(Br)c(Cl)c3)ncnc2cc1O[C@H]1CO[C@H]2[C@@H]1OC[C@H]2OC` [Example 78, 1,4:3,6-dianhydro-2-O-[4-[(4-bromo-3-chlorophenyl)amino]-6-(methyloxy)quinazolin-7-yl]-5-O-methyl-D-glucitol]: the IC50 at KDR is under 50 nM.

Regarding `COc1cc2c(Nc3c(F)cccc3F)ncnc2cc1O[C@@H]1CO[C@@H]2[C@H]1OC[C@H]2F` [Example 87, 1,4:3,6-dianhydro-2-deoxy-5-O-[4-[(2,6-difluorophenyl)amino]-6-(methyloxy)quinazolin-7-yl]-2-fluoro-D-iditol], the IC50 on KDR and at EGFR was under 50 nM in each case.

On to `COc1cc2c(Nc3ccc(Cl)c(Cl)c3)ncnc2cc1OCc1noc(C2CCCN2)n1` (stereo not drawn) [Example 263, N-(3,4-dichlorophenyl)-6-(methyloxy)-7-{[(5-pyrrolidin-2-yl-1,2,4-oxadiazol-3-yl)methyl]oxy}quinazolin-4-amine], for which the IC50 was 50 to 1000 nM against EphB4, under 50 nM at EGFR and 1000 to 20000 nM at EphA2.

In the case of `COc1cc2c(Nc3ccc(Cl)c(Cl)c3)ncnc2cc1OCC1CN(CCCCCC#N)CCO1` (stereo not drawn) [Example 277, 6-[2-({[4-[(3,4-dichlorophenyl)amino]-6-(methyloxy)quinazolin-7-yl]oxy}methyl)morpholin-4-yl]hexanenitrile], the IC50 against EphB4 was 50 to 1000 nM; on EGFR it was under 50 nM; at EphA2 it was 1000 to 20000 nM.

Regarding `COc1cc2c(Nc3cccc(Cl)c3C)ncnc2cc1O[C@H]1CO[C@H]2[C@@H]1OC[C@@H]2OC` [Example 76, 1,4:3,6-dianhydro-2-O-[4-[(3-chloro-2-methylphenyl)amino]-6-(methyloxy)quinazolin-7-yl]-5-O-methyl-L-iditol], the IC50 was 50 to 1000 nM against EphB4, under 50 nM at EGFR and 50 to 1000 nM at EphA2.

`CCN1CCOC(COc2cc3ncnc(Nc4ccc(Cl)c(Cl)c4)c3cc2OC)C1` (stereo not drawn) [Example 212, N-(3,4-dichlorophenyl)-7-{[(4-ethylmorpholin-2-yl)methyl]oxy}-6-(methyloxy)quinazolin-4-amine]: the IC50 was 50 to 1000 nM at EphB4, under 50 nM on EGFR and 50 to 1000 nM on EphA2.

With `COc1ccc(OC)c(Nc2ncnc3cc(O[C@@H]4CO[C@@H]5[C@H]4OC[C@H]5F)c(OC)cc23)c1` [Example 134, 1,4:3,6-dianhydro-5-O-[4-{[2,5-bis(methyloxy)phenyl]amino}-6-(methyloxy)quinazolin-7-yl]-2-deoxy-2-fluoro-D-iditol], the IC50 on KDR and on EGFR was under 50 nM each time.

`COc1cc2c(Nc3ccc(Cl)c(Cl)c3)ncnc2cc1OCc1csc(-c2ccc(Cl)cc2)n1` [Example 223, 7-({[2-(4-chlorophenyl)-1,3-thiazol-4-yl]methyl}oxy)-N-(3,4-dichlorophenyl)-6-(methyloxy)quinazolin-4-amine]: the IC50 was 50 to 1000 nM against EphB4, under 50 nM on EGFR and 50 to 1000 nM at EphA2.

As to `COc1cc2c(Nc3ccc(Cl)c(Cl)c3)ncnc2cc1OCc1csc(C2CCNCC2)n1` [Example 213, N-(3,4-dichlorophenyl)-6-(methyloxy)-7-{[(2-piperidin-4-yl-1,3-thiazol-4-yl)methyl]oxy}quinazolin-4-amine], the IC50 against EphB4 is under 50 nM; on EGFR, under 50 nM; on EphA2, 50 to 1000 nM.

On to `COc1cc2c(Nc3ccc(Cl)c(Cl)c3)ncnc2cc1OCCN1CCCCC1` [Example 192, N-(3,4-dichlorophenyl)-6-(methyloxy)-7-[(2-piperidin-1-ylethyl)oxy]quinazolin-4-amine], for which the IC50 was 50 to 1000 nM against EphB4, under 50 nM at EGFR and 1000 to 20000 nM on EphA2.

Take `COc1cc2c(Nc3ccc(Cl)c(Cl)c3)ncnc2cc1OCCC1OCCCO1` [Example 189, N-(3,4-dichlorophenyl)-7-{[2-(1,3-dioxan-2-yl)ethyl]oxy}-6-(methyloxy)quinazolin-4-amine]: the values for the IC50 against EphB4, on EGFR and on EphA2 were 50 to 1000 nM, under 50 nM and 50 to 1000 nM, respectively.

Take `COc1cc2c(Nc3ccc(Cl)c(Cl)c3)ncnc2cc1OCc1noc(-c2c(C)noc2C)n1` [Example 224, N-(3,4-dichlorophenyl)-7-({[5-(3,5-dimethylisoxazol-4-yl)-1,2,4-oxadiazol-3-yl]methyl}oxy)-6-(methyloxy)quinazolin-4-amine]: the IC50 at EphB4 is 50 to 1000 nM; at EGFR it was under 50 nM; at EphA2, 50 to 1000 nM.

Turning to `COc1cc2c(Nc3ccc(Cl)c(Cl)c3)ncnc2cc1OCc1noc(C(C)(C)C)n1` [Example 157, N-(3,4-dichlorophenyl)-7-({[5-(1,1-dimethylethyl)-1,2,4-oxadiazol-3-yl]methyl}oxy)-6-(methyloxy)quinazolin-4-amine], the IC50 at KDR and at EGFR was under 50 nM each time.

`COc1cc2c(Nc3ccc(Cl)c(Cl)c3)ncnc2cc1OCC1CN(CCCc2ccccc2)CCO1` (stereo not drawn) [Example 271, N-(3,4-dichlorophenyl)-6-(methyloxy)-7-({[4-(3-phenylpropyl)morpholin-2-yl]methyl}oxy)quinazolin-4-amine]: the figures for the IC50 against EphB4, at EGFR and at EphA2 were 50 to 1000 nM, under 50 nM and 1000 to 20000 nM, respectively.

Take `COc1cc2c(Nc3ccc(Cl)c(Cl)c3)ncnc2cc1OCc1nnc(-c2ccc(C)cc2)o1` [Example 228, N-(3,4-dichlorophenyl)-6-(methyloxy)-7-({[5-(4-methylphenyl)-1,3,4-oxadiazol-2-yl]methyl}oxy)quinazolin-4-amine]: the values for the IC50 on EphB4, on EGFR and at EphA2 were under 50 nM, under 50 nM and 50 to 1000 nM, respectively.

As for `COc1cc2c(Nc3ccc(Cl)c(Cl)c3)ncnc2cc1OCc1nc(-c2ccc(O)c(C(N)=O)c2)cs1` [Example 200, 5-[2-({[4-[(3,4-dichlorophenyl)amino]-6-(methyloxy)quinazolin-7-yl]oxy}methyl)-1,3-thiazol-4-yl]-2-hydroxybenzamide], the figures for the IC50 against EphB4, on EGFR and at EphA2 were 50 to 1000 nM, under 50 nM and 50 to 1000 nM, respectively.

For `CCN1CCCC(c2nc(COc3cc4ncnc(Nc5ccc(Cl)c(Cl)c5)c4cc3OC)cs2)C1` (stereo not drawn) [Example 254, N-(3,4-dichlorophenyl)-7-({[2-(1-ethylpiperidin-3-yl)-1,3-thiazol-4-yl]methyl}oxy)-6-(methyloxy)quinazolin-4-amine], the IC50 is 50 to 1000 nM on EphB4, under 50 nM on EGFR and 1000 to 20000 nM on EphA2.

As to `COCCN1CCOC(COc2cc3ncnc(Nc4ccc(Cl)c(Cl)c4)c3cc2OC)C1` (stereo not drawn) [Example 272, N-(3,4-dichlorophenyl)-6-(methyloxy)-7-[({4-[2-(methyloxy)ethyl]morpholin-2-yl}methyl)oxy]quinazolin-4-amine], the figures for the half-inhibitory concentration (IC50) against EphB4, at EGFR and at EphA2 were 50 to 1000 nM, under 50 nM and 1000 to 20000 nM, respectively.

Turning to `CCN1CCN(c2nc(COc3cc4ncnc(Nc5ccc(Cl)c(Cl)c5)c4cc3OC)cs2)CC1` [Example 267, N-(3,4-dichlorophenyl)-7-({[2-(4-ethylpiperazin-1-yl)-1,3-thiazol-4-yl]methyl}oxy)-6-(methyloxy)quinazolin-4-amine], the IC50 against EphB4 is 1000 to 20000 nM; at EGFR, under 50 nM; at EphA2, 1000 to 20000 nM.
